Experimental data: patent US20110257208A1, “COMPOUNDS USEFUL AS FAAH MODULATORS AND USES THEREOF” (priority 2008, published 2011)

Molecular target: T1, hFAAH (Homo sapiens, UniProt O00519)
T1 construct: expressed in transfected cells; host or cells: HEK293-TRex (Invitrogen) stably transfected with hFAAH in the pcDNA5-Tet-off vector, or T84 human colon epithelial cells (endogenous hFAAH); used as a microsomal preparation
T1 sequence (O00519 1-579): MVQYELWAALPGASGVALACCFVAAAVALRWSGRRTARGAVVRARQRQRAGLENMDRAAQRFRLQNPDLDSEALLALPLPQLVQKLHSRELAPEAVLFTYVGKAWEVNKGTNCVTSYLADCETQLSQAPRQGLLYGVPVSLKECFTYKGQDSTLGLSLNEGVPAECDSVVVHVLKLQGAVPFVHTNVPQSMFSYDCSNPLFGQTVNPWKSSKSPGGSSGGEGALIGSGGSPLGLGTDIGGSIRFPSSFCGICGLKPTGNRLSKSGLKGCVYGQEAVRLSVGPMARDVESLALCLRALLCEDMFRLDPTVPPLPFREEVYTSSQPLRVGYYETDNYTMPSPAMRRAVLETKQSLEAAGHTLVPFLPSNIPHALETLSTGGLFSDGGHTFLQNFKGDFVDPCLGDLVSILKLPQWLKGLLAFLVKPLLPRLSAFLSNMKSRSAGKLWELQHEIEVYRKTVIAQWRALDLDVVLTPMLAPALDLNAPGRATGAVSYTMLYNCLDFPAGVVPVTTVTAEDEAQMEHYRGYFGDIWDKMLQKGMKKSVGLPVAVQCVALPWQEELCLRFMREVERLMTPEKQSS
Assay: Fluorimetric assay with hFAAH microsomes (enzymatic, fluorescence based)
Assay type: biochemical
Conditions: compound at 1 uM, AA-AMC substrate
In short: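 Microsomes from T84 cells (endogenous hFAAH) or doxycycline-induced HEK293-TRex cells stably expressing hFAAH, 10 μg per well, in 50 mM HEPES pH 7.4, 1 mM EDTA, 1.4 mg/mL BSA with 2 μM AA-AMC. Kinetic fluorescence read (ex 355/em 460 nm, 275 cycles); activity as % inhibition, 7 concentrations in duplicate.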

inhibition at 1 µM [%]	Compound
> 50	Cc1nc(C)c(C(=O)N2Cc3ncnc(Nc4cnc5ccccc5c4)c3C2)s1 [Compound 49, (2,4-Dimethyl-thiazol-5-yl)-[4-(quinolin-3-ylamino)-5,7-dihydro-pyrrolo[3,4-d]pyrimidin-6-yl]-methanone]
> 25	Cc1nc(C(F)(F)F)ccc1CN1Cc2ncnc(Nc3cnc4ccccc4c3)c2C1 [Compound 74, [6-(2-Methyl-6-trifluoromethyl-pyridin-3-ylmethyl)-6,7-dihydro-5H-pyrrolo[3,4-d]pyrimidin-4-yl]-quinolin-3-yl-amine]
> 75	c1cc(CN2Cc3ncnc(Nc4cnc5ccccc5c4)c3C2)c2c(c1)OCO2 [Compound 103, (6-Benzo[1,3]dioxol-4-ylmethyl-6,7-dihydro-5H-pyrrolo[3,4-d]pyrimidin-4-yl)-quinolin-3-yl-amine]
